Laboratory results published in paper PMC6803965, “A New Class of β–Pyrrolidino-1,2,3-Triazole Derivatives as β-Adrenergic Receptor Inhibitors: Synthesis, Pharmacological, and Docking Studies” (Molecules, 2019).
Converted amounts (≈) assume the structure as drawn. Read-outs that look alike come from different tables or passages of the source.

Assays:
[1] = test system: Staphylococcus epidermidis; assay: Minimum inhibitory concentration (MIC); format: cell-based; conditions: read-out: Minimum inhibitory concentration
Protocol: (§1) The MIC experiment was carried out according to the standard reference methods. Briefly, the required concentrations of synthesized compounds 5a–l were dissolved in DMSO (Dimethylsulfoxide) in concentrations of 500 µg/mL, 250 µg/mL, 125 µg/mL, 62.5 µg/mL, 31.25 µg/mL, 15.6 µg/mL, and […]. An inoculum of 100 µL from each well (96-well plate) was inoculated. For the positive control, ketoconazole (fungi) and streptomycin (bacteria) was used. The MIC values for the tested bacteria were identified as the lowest inhibiting concentration of compound on the agar plate in visual growth.

[2] = test system: Enterobacter aerogenes; assay: Minimum inhibitory concentration (MIC); format: cell-based; conditions: Klebsiella aerogenes, read-out: Minimum inhibitory concentration
Protocol: as §1

[3] = test system: Proteus vulgaris; assay: Minimum inhibitory concentration (MIC); format: cell-based; conditions: read-out: Minimum inhibitory concentration
Protocol: as §1

[4] = test system: Staphylococcus aureus; assay: Minimum inhibitory concentration (MIC); format: cell-based; conditions: read-out: Minimum inhibitory concentration
Protocol: as §1

[5] = test system: Micrococcus luteus; assay: Minimum inhibitory concentration (MIC); format: cell-based; conditions: read-out: Minimum inhibitory concentration
Protocol: as §1

[6] = test system: Salmonella paratyphi-B; assay: Minimum inhibitory concentration (MIC); format: cell-based
Protocol: as §1

[7] = test system: Salmonella typhimurium; assay: Minimum inhibitory concentration (MIC); format: cell-based; conditions: Salmonella enterica, read-out: Minimum inhibitory concentration
Protocol: as §1

[8] = test system: Klebsiella pneumoniae; assay: Minimum inhibitory concentration (MIC); format: cell-based; conditions: read-out: Minimum inhibitory concentration
Protocol: as §1

[9] = test system: Staphylococcus aureus-MRSA; assay: Minimum inhibitory concentration (MIC); format: cell-based; conditions: read-out: Minimum inhibitory concentration
Protocol: as §1

[10] = test system: Shigella flexneri; assay: Minimum inhibitory concentration (MIC); format: cell-based
Protocol: as §1

[11] = test system: Candida albicans; assay: Antimicrobial well method, zone of inhibition; format: cell-based; conditions: 1 mg/well
Protocol: (§2) Antimicrobial activity was carried out as described previously. Briefly, 20 mL of sterile Mueller Hinton agar (MHA) was poured in the petri plates and kept for solidification. After solidification, the test cultures were swabbed on the top of the media and kept for 10 min to dry. The required concentration (1 mg/well) of synthesized compounds 5a–l was added to each well and left for 30 min at RT for compound diffusion. Ketoconazole (fungi) and streptomycin (bacteria) used for positive controls. The zone of inhibition was recorded in mm and the experiment was repeated twice.

[12] = test system: Staphylococcus epidermidis; assay: Antimicrobial well method, zone of inhibition; format: cell-based
Protocol: as §2

[13] = test system: Enterobacter aerogenes; assay: Antimicrobial well method, zone of inhibition; format: cell-based; conditions: Klebsiella aerogenes
Protocol: as §2

[14] = test system: Proteus vulgaris; assay: Antimicrobial well method, zone of inhibition; format: cell-based
Protocol: as §2

[15] = test system: Staphylococcus aureus; assay: Antimicrobial well method, zone of inhibition; format: cell-based
Protocol: as §2

[16] = test system: Micrococcus luteus; assay: Antimicrobial well method, zone of inhibition; format: cell-based
Protocol: as §2

[17] = test system: Salmonella paratyphi-B; assay: Antimicrobial well method, zone of inhibition; format: cell-based
Protocol: as §2

[18] = test system: Salmonella typhimurium; assay: Antimicrobial well method, zone of inhibition; format: cell-based; conditions: Salmonella enterica
Protocol: as §2

[19] = test system: Klebsiella pneumoniae; assay: Antimicrobial well method, zone of inhibition; format: cell-based
Protocol: as §2

[20] = test system: Malassezia pachydermatis; assay: Antimicrobial well method, zone of inhibition; format: cell-based
Protocol: as §2

[21] = test system: Staphylococcus aureus-MRSA; assay: Antimicrobial well method, zone of inhibition; format: cell-based
Protocol: as §2

[22] = test system: Shigella flexneri; assay: Antimicrobial well method, zone of inhibition; format: cell-based
Protocol: as §2

[23] = test system: A549 cells; assay: Cytotoxicity, aqueous one solution reagent; format: cell-based; conditions: for IC50: Homo sapiens, 24 h treatment, read-out: IC50 against A549
Protocol: (§3) The cytotoxic study was carried out as reported previously. Briefly, IMR90, HepG-2, and A549 cells were grown in DMEM (Dulbecco’s Modified Eagle Medium) that contained 10% fetal bovine serum and 1% antibiotics. A total of 15 × 10^3 cells/well were seeded in 96-well plates and incubated under humidified conditions. Cells were treated with varying concentrations of synthesized triazoles for 24 h. After a 24 h treatment, 20 µL aqueous one solution reagent was added to each well and incubated for 3–4 h under a humidified condition. For IMR90 cells, MTT (MTT = 3-(4,5-dimethyl-2-thiazolyl)-2,5-diphenyl-2H-tetrazolium bromide) (5 mg/mL) was added and incubated for 3–4 h in the dark. After incubation, 100 µL of a 10% SDS (Sodium Dodecyl Sulfate) solution (0.01% HCl) was added to each well. The data was taken using an ELISA (enzyme-linked immunosorbent assay) reader at the absorbance of 490 nm for HepG-2 and A549 cells and 570 nm for IMR90 cells. The cell death was calculated using the following formula: Inhibition (%) = ((A − B)/A) × 100 (A—control group, B—treated group).

[24] = test system: HepG-2 cells; assay: Cytotoxicity, aqueous one solution reagent; format: cell-based; conditions: for IC50: Homo sapiens, HepG2, 24 h treatment, read-out: IC50 against HepG-2
Protocol: as §3

[25] = test system: tested bacteria; assay: Antimicrobial well method, result in words; format: cell-based; conditions: 1 mg/mL concentration
Protocol: as §2

[26] = test system: IMR90 cells; assay: Cytotoxicity on normal cells, MTT; format: cell-based; conditions: IMR-90, human normal IMR90 cells, 24 h treatment, read-out: IC50 against IMR90
Protocol: as §3

SMILES | MIC [1] [mg/L] | MIC [3] [mg/L] | MIC [4] [mg/L] | MIC [5] [mg/L] | MIC [6] [mg/L] | MIC [8] [mg/L] | MIC [10] [mg/L] | zone of inhibition at 1 mg/well [12] [mm] | zone of inhibition at 1 mg/well [13] [mm] | zone of inhibition at 1 mg/well [14] [mm] | zone of inhibition at 1 mg/well [15] [mm] | zone of inhibition at 1 mg/well [16] [mm] | zone of inhibition at 1 mg/well [17] [mm] | zone of inhibition at 1 mg/well [18] [mm] | zone of inhibition at 1 mg/well [19] [mm] | zone of inhibition at 1 mg/well [21] [mm] | zone of inhibition at 1 mg/well [22] [mm] | cytotoxic / anticancer activity against A549 cells [23] | IC50 [23] [µM] | antimicrobial activity against tested bacteria [25] | other results
C[C@@H]([C@@H](c1ccccc1)n1cc(CO)nn1)N1CCCC1 [5a, (1R,2S)-1-(1-(1-Phenyl-2-(pyrrolidin-1-yl)propyl)-1H-1,2,3-triazol-4-yl)methanol] | 250 (≈ 873 µM) | 125 (≈ 436 µM) | 500 (≈ 1750 µM) | 31.2 (≈ 109 µM) | 250 (≈ 873 µM) | 62.5 (≈ 218 µM) | 62.5 (≈ 218 µM) | 14 | 14 | 17 | 12 | 28 | 14 | 14 | 20 | 13 | 22 | promising anticancer activity | 190 ± 1.35 | promising activity | MIC ([2]; Enterobacter aerogenes): 250 mg/L (≈ 873 µM); MIC ([7]; Salmonella typhimurium): 250 mg/L (≈ 873 µM); MIC ([9]; Staphylococcus aureus-MRSA): 250 mg/L (≈ 873 µM); zone of inhibition [11]: 14 mm; zone of inhibition at 1 mg/well [20]: 12 mm; cytotoxic activity against HepG-2 cells [24]: moderate activity; IC50 [24]: 275 ± 1.52 µM; IC50 [26]: > 250 µM
C[C@@H]([C@@H](c1ccccc1)n1cc(COC(=O)c2ccc([N+](=O)[O-])cc2)nn1)N1CCCC1 [5g, (1R,2S)-(1-(1-Phenyl-2-(pyrrolidin-1-yl)propyl)-1H-1,2,3-triazol-4-yl)methyl 4-nitrobenzoate] | 31.2 (≈ 71.8 µM) | 31.2 (≈ 71.8 µM) | 125 (≈ 287 µM) | 125 (≈ 287 µM) | 62.5 (≈ 144 µM) | 31.2 (≈ 71.8 µM) | 31.2 (≈ 71.8 µM) | 28 | 22 | 26 | 16 | 17 | 20 | 22 | 24 | 24 | 25 | promising anticancer activity | 72 ± 3.21 | promising activity | MIC [2]: 62.5 mg/L (≈ 144 µM); MIC ([7]; TYPHIMURIUM): 62.5 mg/L (≈ 144 µM); MIC ([9]; Staphylococcus, MRSA): 31.2 mg/L (≈ 71.8 µM); zone of inhibition [11]: 13 mm; IC50 [24]: > 300 µM; IC50 [26]: > 250 µM
COc1ccc(C(=O)OCc2cn([C@H](c3ccccc3)[C@H](C)N3CCCC3)nn2)cc1OC [5h, (1R,2S)-(1-(1-Phenyl-2-(pyrrolidin-1-yl)propyl)-1H-1,2,3-triazol-4-yl)methyl-3,4-dimethoxy-benzoate] | 125 (≈ 277 µM) | 62.5 (≈ 139 µM) | 250 (≈ 555 µM) | 250 (≈ 555 µM) | 62.5 (≈ 139 µM) | 62.5 (≈ 139 µM) | 125 (≈ 277 µM) | 16 | 17 | 23 | 15 | 14 | 19 | 22 | 20 | 20 | 18 | promising anticancer activity | 58 ± 2.31 | promising activity | MIC [2]: 125 mg/L (≈ 277 µM); MIC ([7]; TYPHIMURIUM): 62.5 mg/L (≈ 139 µM); MIC ([9]; Staphylococcus, MRSA): 62.5 mg/L (≈ 139 µM); IC50 [24]: 73 ± 3.88 µM; IC50 [26]: > 250 µM
Cc1cccc(C(=O)OCc2cn([C@H](c3ccccc3)[C@H](C)N3CCCC3)nn2)c1 [5j, (1R,2S)-(1-(1-Phenyl-2-(pyrrolidin-1-yl)propyl)-1H-1,2,3-triazol-4-yl)methyl 3-methylbenzoate] | 250 (≈ 618 µM) | 62.5 (≈ 155 µM) | 250 (≈ 618 µM) | 125 (≈ 309 µM) | 125 (≈ 309 µM) | 62.5 (≈ 155 µM) | 62.5 (≈ 155 µM) | 14 |  | 20 | 15 | 16 | 18 | 20 | 22 | 14 | 22 | promising anticancer activity | 111 ± 1.82 | promising activity | MIC ([7]; TYPHIMURIUM): 62.5 mg/L (≈ 155 µM); MIC ([9]; Staphylococcus aureus-MRSA): 250 mg/L (≈ 618 µM); zone of inhibition [11]: 13 mm; zone of inhibition at 1 mg/well [20]: 11 mm; IC50 [24]: > 300 µM; IC50 [26]: > 250 µM
C[C@@H]([C@@H](c1ccccc1)n1cc(COC(=O)c2ccccc2Cl)nn1)N1CCCC1 [5k, (1R,2S)-(1-(1-Phenyl-2-(pyrrolidin-1-yl)propyl)-1H-1,2,3-triazol-4-yl)methyl 2-chlorobenzoate] |  | 125 (≈ 294 µM) | 125 (≈ 294 µM) |  | 125 (≈ 294 µM) | 250 (≈ 588 µM) | 125 (≈ 294 µM) |  | 22 | 16 | 18 |  | 18 | 15 | 14 | 17 | 17 |  |  | promising activity | MIC ([2]; Enterobacter aerogenes): 62.5 mg/L (≈ 147 µM); MIC ([7]; Salmonella typhimurium): 250 mg/L (≈ 588 µM); MIC ([9]; Staphylococcus, MRSA): 125 mg/L (≈ 294 µM); melting point: 101 to 102 °C
